US20230405003A1, “APPLICATION OF THYMIDINE DERIVATIVE IN PREPARATION OF DRUGS” (ONQUALITY PHARMACEUTICALS CHINA LTD., priority 2020, published 2023)
Like-named read-outs stand apart in the source and are kept apart here.

Columns and labels:
[1] = tested on: blood cells; assay: Blood cell count after 5-FU diarrhea experiment in mice; assay type: in vivo, mouse; conditions: orbital blood after 5-FU 70 mg/kg/d i.p. three days
Source text: After completion of the experiments, the mice in the 5-FU control group and the experimental group were subject to blood collection at orbital. Blood cells were counted.

[2] = tested on: HaCaT cells; assay: Relief of 5-FU proliferative toxicity to HaCaT cells (CCK-8 cell survival); assay type: cell-based; conditions: for Cell Survival Rate (increased percentage of cell survival compared with the Group of 5-FU): 5-Fu 20 μM, HaCaT cells
Method in brief: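 HaCaT keratinocytes (5000–10000/well) cultured 24 h, then exposed 48 h to 5-FU alone or with thymidine derivative, or thymidine plus uridine derivative mix, versus solvent-matched blanks. Survival by CCK-8; value is % increase in survival over 5-FU alone, t-test.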

[3] = tested on: hand-foot syndrome caused by capecitabine in SD rats; assay: Rat model of hand-foot syndrome caused by capecitabine, gel application; assay type: in vivo; conditions: capecitabine 4000 mg/kg once daily, 40 days; for inhibition in vivo at 3 % / inhibition in vivo at 5 %: Rattus norvegicus, topical, 960 h; for inhibition in vivo at 3 % / Control Rate Forepaws / Control Rate Hindpaws / inhibition in vivo at 5 %: rats; for inhibition in vivo at 5 %: gel 5 wt%
Procedure: A rat animal model was established. 6-week aged female SD rats were administered with capecitabine by daily gavage. The degree of hand-foot syndrome in paws is similar, and there was no difference between the left and right paws. Similar to the human body, rats developed hand-foot syndrome after oral administration of capecitabine. The causes of the two are the same, and the disorder is also very similar. Therefore, rats are very good animal models for simulating the hand-foot syndrome caused by capecitabine.
(§1) After SD rats were fed and adapted for one week (about 200 g), the rats were divided into groups, with 10 rats in each group. Then, the rats were subject to gavage administration. Capecitabine was dissolved in a 1:1 mixed solution of castor oil and ethanol and diluted for three times with PBS buffer. After gavage, the rats were fixed with a fixed cylinder, and a gel of thymidine derivative (or a compounded gel of thymidine derivative and uridine derivative) was applied to double hind paws (about 1 cm*3 cm) of the rats in group of administration (the types and concentrations are shown in Table 4), and a blank gel was applied to the group of blank (as a blank control). After approximately 4 hours of application, the rats were released after 4 hours, wiped with clean water to remove any residual drug at the application site, and allowed back to the cage. The thymidine derivative gel (or the compounded gel of thymidine derivative and uridine derivative) was administered with gavage every day. The gavage and application tests are repeated daily until the group of blank has developed obvious hand-foot syndrome.
Table 4 lists the combinations of animal experiments of capecitabine and the thymidine derivative gel (or the compounded gel of thymidine derivative and uridine derivative) and the corresponding experimental results (wherein, the data in the column of control rate=the occurrence rate of hand-foot syndrome in group of blank—the occurrence rate of hand-foot syndrome in group of administration). […]

[4] = tested on: pain in capecitabine hand-foot syndrome rats; assay: Pain of hand-foot syndrome, mechanical sensitivity in rats (von Frey); assay type: in vivo, rat; conditions: capecitabine 4000 mg/kg hand-foot syndrome rats; thymidine derivative 3%
Procedure: According to the method of Examples 91-115, after administration of a thymidine derivative (at a concentration of 3%) and co-administration of a thymidine derivative (at a concentration of 1%) with a uridine derivative (at a concentration of 3%) to rat hand-foot syndrome models constructed from 4000 mg/kg of capecitabine for a period of time, pain analysis was performed on the rats, and the pain assessment model was mechanical sensitivity in rats (von Frey). The experimental steps were as follows: first, the rats were allowed to adapt in the room for 1 hour, then the rats were placed in an observation box with a metal mesh floor, and the mice were allowed to stay in the box for 20 minutes to adapt to the experimental platform. Next, a von Frey device was used to detect paw pain by stimulating the surface of the rat's palm with specially designed cilia to detect the mechanical sensitivity of the animal at strength of 0.4 g, 0.8 g, 1.5 g, 2.5 g, 4 g, 8 g, 10 g and 20 g (IITC Life Science, Woodland Hills, 2390 series). […] The rat movement response was considered to be a vague response, in which case the stimulation experiment was repeated.

[5] = tested on: hand-foot syndrome caused by Cytarabine in rats; assay: Rat model of hand-foot syndrome caused by cytarabine, gel application; assay type: in vivo; conditions: Cytarabine 120 mg/kg twice per day, gel 3 wt%, 30 days
Procedure: as §1
(§2) The effects of thymidine derivative or a combination of thymidine derivative and uridine derivative on the chemotherapeutic drug-induced hand-foot syndrome in a rat model were tested according to the method in Examples 30-40. At the same time, paws of rats after treatment with the drug were taken and observed for their inflammation by hematoxylin-eosin staining (HE) and immunohistochemical staining (IHC).
(§3) The test thymidine derivative or the combination of thymidine derivative and uridine derivative, as well as the final concentration of the test compounds were shown in Table 8. Table 8 lists the animal experiment combination of a chemotherapeutical drug and the thymidine derivative gel (or the compound gel of thymidine derivative and uridine derivative) and the corresponding experimental results (wherein, the data in the column of control rate=the occurrence rate of hand-foot syndrome in Group of blank—the occurrence rate of hand-foot syndrome in Group of administration).

[6] = tested on: hand-foot syndrome caused by Acelarin (NUC-1031) in rats; assay: Rat model of hand-foot syndrome caused by Acelarin (NUC-1031), gel application; assay type: in vivo; conditions: Acelarin (NUC-1031) 130 mg/kg intraperitoneal injection twice a week, gel 3 wt%, 30 days
Procedure: as §1, §2, §3

[7] = tested on: hand-foot syndrome caused by Doxorubicin in rats; assay: Rat model of hand-foot syndrome caused by doxorubicin, gel application; assay type: in vivo; conditions: Doxorubicin 7 mg/kg tail intravenous injection once every three days for 20 days, gel 3 wt%, 30 days
Procedure: as §1, §2, §3

[8] = tested on: human colon cancer cell HCT116 xenograft; assay: Effect of thymidine derivative gel on therapeutical effect of capecitabine, HCT116 xenograft nude mice; assay type: in vivo, mouse; conditions: oral capecitabine 1.5 mmol/kg, 14 days
Procedure: A BALB/C nude mouse (human colon cancer cell HCT116 xenograft) model was established. After the model was stable, the model mice were divided into four groups (in which the average tumor size of each of the 4 groups was kept as consistent as possible). Except the blank group (containing 5 mice), there were 10 mice in each group, which were subject to gavage and application experiments.
Capecitabine was dissolved in a mixed solution of castor oil:ethanol=1:1 (volume ratio). Prior to gavage, the mixture was diluted with PBS to the desired concentration (diluted for about 3 times with PBS solution). […]
A: Group of blank: 5 mice with tumors, no gavage and no drug application; B: blank group: 10 mice with tumors, oral gavage with capecitabine (1.5 mmol/kg), application with blank gel on the back (once per day for 14 days); C: 0.5% T1 group: 10 mice with tumors, oral gavage of capecitabine, application with 0.5% T1 gel (administration method and frequency are the same as those in group B); D: 2% T1 gel group: 10 mice with tumors, oral gavage of capecitabine, application of 2% T1 gel (administration method and frequency are the same as those in group B). […] The tumor size was measured and recorded every 2 days. After 14 days of the experiment, the mice were dissected to take out the tumor, which was weighed and recorded.

[9] = gel 3 wt%, read-out: Control Rate Forepaws
[10] = gel 3 wt%, read-out: Control Rate Hindpaws
[11] = selected compound final concentration 12.5 μM
[12] = selected compound final concentration 25 μM
[13] = selected compound final concentration 50 μM

For `O=c1[nH]cc(F)c(=O)[nH]1` [5-FU, fluorouracil (5-FU)], which blood cells [1] is on record?
Its blood cells is “can reduce all the blood cells that could be detected”.

What does the source list for `Cc1cn([C@H]2C[C@H](O)[C@@H](COC(=O)C(C)(C)C)O2)c(=O)[nH]c1=O` [T4]?
activation at 1 µM ([2]; Homo sapiens, HaCaT, increase vs Group of 5-FU, 5-FU 20 μM, compound 1 μM, 48 h, read-out: Cell Survival Rate): 20 to 36%; activation at 10 µM ([2]; Homo sapiens, HaCaT, increase vs Group of 5-FU, 5-FU 20 μM, compound 10 μM, 48 h, read-out: Cell Survival Rate): 65 to 72%; activation at 100 µM ([2]; Homo sapiens, HaCaT, increase vs Group of 5-FU, 5-FU 20 μM, compound 100 μM, 48 h, read-out: Cell Survival Rate): 80 to 90%; activation at 500 µM ([2]; Homo sapiens, HaCaT, increase vs Group of 5-FU, 5-FU 20 μM, compound 500 μM, 48 h, read-out: Cell Survival Rate): 70 to 77%; activation at 1000 µM ([2]; Homo sapiens, HaCaT, increase vs Group of 5-FU, 5-FU 20 μM, compound 1000 μM, 48 h, read-out: Cell Survival Rate): 2 to 7%; inhibition in vivo at 3 % [3, 9]: 28.6%; inhibition in vivo at 3 % [3, 10]: 42.9%; Control Rate ([3]; SD rats, gel 2 wt% on hind paws): 32.86%; pain in rats (von Frey mechanical sensitivity) [4]: did not significantly improve pain in rats

Which results are given for `CCC1(CC(C)=O)OCCc2c1[nH]c1c(CC(=O)OC[C@H]3O[C@@H](n4cc(C)c(=O)[nH]c4=O)C[C@@H]3O)cccc21` (stereo partly shown) [T26]?
Control Rate Forepaws ([3]; gel 1 wt%): 22.22%; Control Rate Hindpaws ([3]; gel 1 wt%): 44.44%; Control Rate Forepaws ([3]; gel 3 wt%): 57.14%; Control Rate Hindpaws ([3]; gel 3 wt%): 71.43%; pain in rats (von Frey mechanical sensitivity) [4]: could significantly improve pain in rats

Which results are given for `CC(=O)Oc1ccccc1C(=O)OC[C@H]1O[C@@H](n2cc(C)c(=O)[nH]c2=O)C[C@@H]1O` [T37]?
Cell Survival Rate (increased percentage of cell survival compared with the Group of 5-FU) ([2]; selected compound final concentration 0.8 μM): 36%-44%; Cell Survival Rate (increased percentage of cell survival compared with the Group of 5-FU) ([2]; selected compound final concentration 1.6 μM): 55%-62%; Cell Survival Rate (increased percentage of cell survival compared with the Group of 5-FU) ([2]; selected compound final concentration 3.13 μM): 61%-69%; Cell Survival Rate (increased percentage of cell survival compared with the Group of 5-FU) ([2]; selected compound final concentration 6.25 μM): 68%-76%; Cell Survival Rate (increased percentage of cell survival compared with the Group of 5-FU) [2, 11]: 52%-60%; Cell Survival Rate (increased percentage of cell survival compared with the Group of 5-FU) [2, 12]: 49%-57%; Cell Survival Rate (increased percentage of cell survival compared with the Group of 5-FU) [2, 13]: 52%-59%; inhibition in vivo at 3 % [3, 9]: 28.6%; inhibition in vivo at 3 % [3, 10]: 42.9%; Control Rate Forepaws [5]: 22.22%; Control Rate Hindpaws [5]: 44.44%; Control Rate Forepaws [6]: 42.86%; Control Rate Hindpaws [6]: 71.43%; pain in rats (von Frey mechanical sensitivity) [4]: could significantly improve pain in rats

Which “Cell Survival Rate (increased percentage of cell survival compared with the Group of 5-FU)” value [2, 11] does the source give for `COc1ccc2cc([C@@H](C)C(=O)OC[C@H]3O[C@@H](n4cc(C)c(=O)[nH]c4=O)C[C@@H]3O)ccc2c1` [T41] here?
Its value is 39%-46%.

What about the “Cell Survival Rate (increased percentage of cell survival compared with the Group of 5-FU)” value [2, 12] of the same molecule?
The value was 47%-55%.

What about the “Cell Survival Rate (increased percentage of cell survival compared with the Group of 5-FU)” value [2, 13] of the same molecule?
The value was 44%-51%.

And the inhibition in vivo at 3 % [3, 9]?
The inhibition in vivo at 3 % was 50%.

What about the inhibition in vivo at 3 % [3, 10] of the same molecule?
The inhibition in vivo at 3 % was 62.5%.

What about the inhibition in vivo at 5 % ([3]; read-out: Control Rate Forepaws) of the same molecule?
The inhibition in vivo at 5 % was 50%.

And the inhibition in vivo at 5 % ([3]; read-out: Control Rate Hindpaws)?
The inhibition in vivo at 5 % was 75%.

And the “Control Rate Forepaws” value [7]?
The value was 57.14%.

And the “Control Rate Hindpaws” value [7]?
Its value is 42.86%.

And the “pain in rats (von Frey mechanical sensitivity)” value [4]?
The value was “could significantly improve pain in rats”.

How did the “volume of tumor tissue versus group without capecitabine gavage” value [8] turn out when `CCCCCOC(=O)Nc1nc(=O)n([C@@H]2O[C@H](C)[C@@H](O)[C@H]2O)cc1F` [capecitabine, reference compound] was run?
Its value is “significantly smaller than that in Group A”.
